The text below walks through data of ChEMBL document CHEMBL1142248, “Structure-activity relationships and pharmacokinetic parameters of quinoline acylsulfonamides as potent and selective antagonists of the EP(4) receptor” (Bioorg Med Chem Lett, 2008).

The term half-life denotes the time in which the quantity being followed falls by half. One may read the bioavailability as dose-corrected exposure relative to a reference, in per cent.

Series [1] in a line: Half life in dog at 2 mg/kg, iv. The series is classed as ADME, organism-based, Canis lupus familiaris. More on the design: dose 2 mg/kg, route intravenous. Conditions: in vivo.
The nature of series [2]: Clearance in dog at 10 mg/kg, po or 2 mg/kg, iv. The series is classed as ADME, organism-based, Canis lupus familiaris. The following applies: in vivo.
Series [3] is described as follows: Volume of distribution at steady state in dog at 10 mg/kg, po or 2 mg/kg, iv. The series is classed as ADME, organism-based, Canis lupus familiaris. The following applies: in vivo, read-out: Vdss.
The nature of series [4]: Bioavailability in rat at 20 mg/kg, po or 5 mg/kg, iv. The series is classed as ADME, organism-based. Conditions: in vivo.
Series [5] is described as follows: Half life in rat at 5 mg/kg, iv. The series is classed as ADME, organism-based. More on the design: dose 5 mg/kg, route intravenous. The following applies: in vivo.
Series [6] in a line: Clearance in rat at 20 mg/kg, po or 5 mg/kg, iv. The series is classed as ADME, organism-based. The following applies: in vivo.
Series [7] is described as follows: Volume of distribution at steady state in rat at 20 mg/kg, po or 5 mg/kg, iv. The series is classed as ADME, organism-based. Conditions: in vivo, read-out: Vdss.
A short description of series [8]: Bioavailability in guinea pig at 20 mg/kg, po or 5 mg/kg, iv. The series is classed as ADME, organism-based, Cavia porcellus. Conditions: in vivo.
Series [9] is described as follows: Half life in guinea pig at 5 mg/kg, iv. The series is classed as ADME, organism-based, Cavia porcellus. More on the design: dose 5 mg/kg, route intravenous. The following applies: in vivo.
Series [10] is described as follows: Clearance in guinea pig at 20 mg/kg, po or 5 mg/kg, iv. The series is classed as ADME, organism-based, Cavia porcellus. Conditions: in vivo.
A short description of series [11]: Volume of distribution at steady state in guinea pig at 20 mg/kg, po or 5 mg/kg, iv. The series is classed as ADME, organism-based, Cavia porcellus. The following applies: in vivo, read-out: Vdss.
Series [12] is described as follows: Bioavailability in dog at 10 mg/kg, po or 2 mg/kg, iv. The series is classed as ADME, organism-based, Canis lupus familiaris. The following applies: in vivo.
Series [13] is described as follows: Volume of distribution at steady state in mouse at 100 mg/kg, po or 10 mg/kg, iv. The series is classed as ADME, organism-based. Conditions: in vivo, read-out: Vdss.
Series [14] in a line: Bioavailability in rat at 20 mg/kg, po or 10 mg/kg, iv. The series is classed as ADME, organism-based. The following applies: in vivo.
Series [15] is described as follows: Half life in rat at 10 mg/kg, iv. The series is classed as ADME, organism-based. Also on record: dose 10 mg/kg, route intravenous. Conditions: in vivo.
Series [16] can be described thus: Clearance in rat at 20 mg/kg, po or 10 mg/kg, iv. The series is classed as ADME, organism-based. Conditions: in vivo.
Series [17] can be described thus: Volume of distribution at steady state in rat at 20 mg/kg, po or 10 mg/kg, iv. The series is classed as ADME, organism-based. Conditions: in vivo, read-out: Vdss.
Series [18] can be described thus: Metabolic stability in rhesus monkey hepatocytes at 20 uM after 2 hrs. The series is classed as ADME, cell-based, Macaca mulatta, Hepatocyte. The following applies: read-out: Stability.
Series [19] is described as follows: Clearance in dog at 4 mg/kg, po or 5 mg/kg, iv. The series is classed as ADME, organism-based, Canis lupus familiaris. Conditions: in vivo.
Series [20] can be described thus: Volume of distribution at steady state in rhesus monkey at 4 mg/kg, po or 2 mg/kg, iv. The series is classed as ADME, organism-based, Macaca mulatta. Conditions: in vivo, read-out: Vdss.
Series [21] in a line: Clearance in rhesus monkey at 4 mg/kg, po or 2 mg/kg, iv. The series is classed as ADME, organism-based, Macaca mulatta. The following applies: in vivo.
Series [22] in a line: Half life in rhesus monkey at 2 mg/kg, iv. The series is classed as ADME, organism-based, Macaca mulatta. Also on record: dose 2 mg/kg, route intravenous. Conditions: in vivo.
Series [23] is described as follows: Bioavailability in rhesus monkey at 4 mg/kg, po or 2 mg/kg, iv. The series is classed as ADME, organism-based, Macaca mulatta. Conditions: in vivo.
A short description of series [24]: Metabolic stability in dog hepatocytes at 20 uM after 2 hrs. The series is classed as ADME, cell-based, Canis lupus familiaris, Hepatocyte. The following applies: read-out: Stability.
Series [25] can be described thus: Metabolic stability in rat hepatocytes at 20 uM after 2 hrs. The series is classed as ADME, cell-based, Hepatocyte. Conditions: read-out: Stability.
A short description of series [26]: Volume of distribution at steady state in dog at 4 mg/kg, po or 5 mg/kg, iv. The series is classed as ADME, organism-based, Canis lupus familiaris. Conditions: in vivo, read-out: Vdss.
A short description of series [27]: Half life in dog at 5 mg/kg, iv. The series is classed as ADME, organism-based, Canis lupus familiaris. More on the design: dose 5 mg/kg, route intravenous. The following applies: in vivo.
Series [28] is described as follows: Bioavailability in dog at 4 mg/kg, po or 5 mg/kg, iv. The series is classed as ADME, organism-based, Canis lupus familiaris. Conditions: in vivo.
Series [29] is described as follows: Metabolic stability in human hepatocytes at 20 uM after 2 hrs. The series is classed as ADME, cell-based, Hepatocyte. The following applies: read-out: Stability.
A short description of series [30]: Half life in mouse at 10 mg/kg, iv. The series is classed as ADME, organism-based. The following applies: in vivo. More on the design: dose 10 mg/kg, route intravenous.
The nature of series [31]: Bioavailability in mouse at 100 mg/kg, po or 10 mg/kg, iv. The following applies: in vivo. The series is classed as ADME, organism-based.
Series [32] can be described thus: Clearance in mouse at 100 mg/kg, po or 10 mg/kg, iv. The series is classed as ADME, organism-based. The following applies: in vivo.

In the case of `CCOc1c2c(c(OCC)c3ncccc13)CN(c1ccc(CS(=O)(=O)[N-]C(=O)Cc3ccccc3OC)cc1C)C2=O.[Na+]`, the half-life in [1] was 4.1 h; in series [5] it was 2.7 h; in [9], 8.6 h. The clearance in [2] worked out at 0.4 mL/min/kg; in [6], 7.8 mL/min/kg; in series [10], 3.6 mL/min/kg. Also, the Vd stood at 0.1 L/kg in [3], 1.6 L/kg in series [7] and 0.6 L/kg in series [11]. Besides, the bioavailability in series [4] is over 99%; in series [8] it was 18%; in series [12] it was 49%.

As for `COc1cccc(OC)c1C1(C(=O)[N-]S(=O)(=O)Cc2ccc(N3Cc4c(c(OCC(F)(F)F)c5cccnc5c4OCC(F)(F)F)C3=O)c(C)c2)CC1.[Na+]`, the Vd in series [13] is 0.7 L/kg; in series [17], 0.7 L/kg; in series [20], 0.3 L/kg; in [26] it was 0.2 L/kg. In addition, the bioavailability in series [14] is 73%; in series [23] it was 40%; in series [28] it was 69%; in [31] it was 44%. For the same compound, the half-life in series [15] was 14.8 h; in series [22] it was 3.8 h; in series [27], 13.2 h; in series [30], 3.5 h. For the same compound, the clearance is 0.6 mL/min/kg in [16], 0.2 mL/min/kg in [19], 2 mL/min/kg in series [21] and 2.6 mL/min/kg in series [32]. The remaining at 2 h, 20 µM came out at 39% in series [18], 20% in series [24], 6% in series [25] and 36% in series [29].
